Tested on: Helicobacter pylori
Assay: Inhibition of H. pylori growth on LB/sheep blood agar plates containing DSW extract
Type: cell-based, Helicobacter pylori (ten samples from different patients)
Details: same concentration of magnesium ions as the DSW extract (MgCl2 285 and 570 mg/L)
Source text: The present invention validates that the active components of the deep sea water extract having ability of inhibiting H. pylori growth are not associated with high magnesium, calcium ions and high hardness. […] Also, the present invention uses mass spectrometry to show a relational graph between the intensity value of the 1,070 component of the DSW extract and inhibiting H. pylori growth rate. In one embodiment, prepare the LB agar having the DSW extract with different hardness, the DSW extract with different concentration of EDTA or different concentration of MgCl2, follow by filtration through the 0.22 μm filter membrane or sterilization in an autoclave. Mix the LB agar with sheep blood, and pour the mixture into each 9-cm culture plate. Let each plate cool until its solid to form agar plate. For the LB agar having different concentration of MgCl2, take 2.85 mg MgCl2, add other nutrients and water to make 10 mL agar plate, the agar plate contains 285 mg/L MgCl2. According to above-mentioned procedure, the agar plats having different concentration of MgCl2 are 285 mg/L and 570 mg/L. The present invention also prepares the LB agar having the DSW extract with 1,200 ppm to 6,000 ppm and the 2,400 ppm DSW extract with different concentration of EDTA. The present invention identifies the active components of the DSW extract having the ability of inhibiting H. pylori growth. […]

[Cl-].[Cl-].[Mg+2] [magnesium ions, MgCl2]
ability of inhibiting H. pylori growth: does not have the ability of inhibiting H. pylori growth
